Results on 2 compounds are retold here after patent publication US11717639B2, “Combinatorial therapeutic systems and methods” (Cognifisense, Inc., priority 2018, dated 2023).

For one assay, the target named is D2 receptors (Homo sapiens, UniProt P14416). Particulars: cited from earlier work.
A further assay addresses D1 receptors (Homo sapiens, UniProt P21728). Particulars: cited from earlier work.
Assay [1] deals with benzodiazepine binding sites. Particulars: cited from earlier work.
Another assay concerns opioid binding sites. Particulars: cited from earlier work.
A further assay deals with H1 receptors (Homo sapiens, UniProt P35367). Conditions: cited from earlier work.
Sequence of H1 receptors (P35367 whole entry): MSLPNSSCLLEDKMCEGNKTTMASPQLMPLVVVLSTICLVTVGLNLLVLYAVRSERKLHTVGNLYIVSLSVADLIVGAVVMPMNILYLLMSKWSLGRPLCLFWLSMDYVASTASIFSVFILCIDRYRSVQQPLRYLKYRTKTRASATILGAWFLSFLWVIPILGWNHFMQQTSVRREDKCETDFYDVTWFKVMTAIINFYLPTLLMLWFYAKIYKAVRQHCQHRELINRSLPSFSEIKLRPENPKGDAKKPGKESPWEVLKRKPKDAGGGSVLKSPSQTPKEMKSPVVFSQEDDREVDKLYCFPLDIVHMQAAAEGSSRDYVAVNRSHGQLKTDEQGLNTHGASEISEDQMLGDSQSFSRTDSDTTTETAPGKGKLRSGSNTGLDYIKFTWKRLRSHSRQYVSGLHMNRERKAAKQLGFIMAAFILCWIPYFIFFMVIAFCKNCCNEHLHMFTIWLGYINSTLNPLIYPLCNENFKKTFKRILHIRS
Assay [2] relates to pain associated with fibromyalgia. The assay can be described thus: Combinatorial therapy of milnacipran and VRNT or virtual reality distraction therapy for fibromyalgia. The format is in vivo, patient. An excerpt: In an exemplary embodiment, a combinatorial therapeutic system for treating fibromyalgia includes a serotonin-norepinephrine reuptake inhibitor (SNRI) and an artificial sensory experience. The SNRI can include milnacipran, specifically, and in some embodiments, the SNRI can include other SNRIs commonly prescribed to treat fibromyalgia (e.g., duloxetine). Similar to those combinatorial systems described above, the artificial sensory experience combined with the SNRI (preferably milnacipran) can include any of 2D/3D/4D artificial sensory experiences, holography, augmented reality, virtual reality, and/or mixed reality. In an exemplary embodiment, the artificial sensory experience is VRNT or virtual reality distraction therapy.
In some embodiments, the combinatorial treatment systems and methods for treating/mitigating pain associated with fibromyalgia can have similar results to those illustrated and described with respect to FIGS. 5A, 5B, 5C, 6A, and 6B.

The subject of a further assay is α1 receptors. Conditions: cited from earlier work.
A further assay has as its system mACh receptors. Conditions: cited from earlier work.
In assay [3] the test system is pain. Put plainly: Combinatorial therapy of opioid analgesic and VRNT: patient's amount of pain over time (FIGS. 5A-5C). The class given is in vivo. Particulars: opioid analgesic in combination with VRNT, potential patient responses. An excerpt:
FIGS. 5A-5C illustrate exemplary graphs of potential effects of combinatorial therapeutic systems/methods employing tapentadol and VRNT on a patient's amount of pain over time; and
The synergistic effects of the disclosed combinatorial therapeutic systems/methods can be exemplified in a plurality of responses. For example, FIGS. 5A-5C illustrate a combinatorial therapy using tapentadol (as the opioid analgesic) and VRNT (as the artificial sensory experience) with different potential patient responses. As many, if not all, patients may experience the synergistic benefits afforded by the disclosed combinatorial therapeutic systems/methods as an average benefit, the individual-specific responses may be different.

The conditions of assay [4]: relative to tramadol and morphine; cited from earlier work.
Assay [5] relates to pain. Particulars: reported; cited from earlier work.

Entries after “also recorded” stand apart in the source; their conditions may differ.

Sequence of D2 receptors (P14416 whole entry): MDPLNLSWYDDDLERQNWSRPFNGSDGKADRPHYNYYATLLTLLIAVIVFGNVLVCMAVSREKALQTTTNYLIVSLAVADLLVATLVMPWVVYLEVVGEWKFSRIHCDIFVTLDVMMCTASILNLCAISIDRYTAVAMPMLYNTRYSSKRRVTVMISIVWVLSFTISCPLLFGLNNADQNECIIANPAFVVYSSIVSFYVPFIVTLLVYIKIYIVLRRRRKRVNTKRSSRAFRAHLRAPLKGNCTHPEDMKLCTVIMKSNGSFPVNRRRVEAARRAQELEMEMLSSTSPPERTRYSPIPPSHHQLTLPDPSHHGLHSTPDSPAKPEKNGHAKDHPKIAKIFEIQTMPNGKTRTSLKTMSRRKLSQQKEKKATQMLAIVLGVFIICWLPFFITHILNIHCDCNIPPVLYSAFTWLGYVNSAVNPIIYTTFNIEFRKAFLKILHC
Sequence of D1 receptors (P21728 whole entry): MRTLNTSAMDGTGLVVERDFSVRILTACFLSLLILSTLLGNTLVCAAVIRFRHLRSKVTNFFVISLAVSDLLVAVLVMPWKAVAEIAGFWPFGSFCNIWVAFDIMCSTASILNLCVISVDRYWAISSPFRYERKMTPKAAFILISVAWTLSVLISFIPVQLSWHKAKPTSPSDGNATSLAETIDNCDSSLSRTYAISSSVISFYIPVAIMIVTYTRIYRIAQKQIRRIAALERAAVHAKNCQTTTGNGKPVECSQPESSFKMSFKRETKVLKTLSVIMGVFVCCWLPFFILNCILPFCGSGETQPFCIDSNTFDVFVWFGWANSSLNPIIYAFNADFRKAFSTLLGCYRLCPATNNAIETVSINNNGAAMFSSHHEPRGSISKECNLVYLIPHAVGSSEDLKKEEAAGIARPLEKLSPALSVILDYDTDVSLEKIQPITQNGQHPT

As for `CCN(CC)C(=O)C1(c2ccccc2)CC1CN` (centres unmarked) [milnacipran], the “actions on D2 receptors” value at D2 receptors is listed as “no significant actions”. The “actions on D1 receptors” value on D1 receptors is on record as “no significant actions”. For the same compound, the “actions on benzodiazepine binding sites” value in [1] is reported as “no significant actions”. For the same compound, in the assay on opioid binding sites, the “actions on opioid binding sites” value is listed as “no significant actions”. Besides, the “actions on H1 receptors” value at H1 receptors was “no significant actions”. For the same compound, the pain over time result in assay [2] is “decrease in pain over time”. In the assay with α1 receptors, the “actions on α1 receptors” value was “no significant actions”. Moreover, the “actions on mACh receptors” value in the assay with mACh receptors is reported as “no significant actions”.

For `CC[C@@H](c1cccc(O)c1)[C@@H](C)CN(C)C` [tapentadol], the “patient's amount of pain over time” value with pain [3] was “constant or linear decrease in pain over time; also recorded: cyclical decrease and increase in pain levels over time with an overall decreasing pain level; also recorded: step-wise reduction in pain levels”. Also, the potency result in [4] is “somewhere between tramadol, another synthetic opioid, and morphine”. In the assay with pain [5], the “pain reduction / efficacy versus placebo” value is recorded as “limited efficacy beyond placebo; also recorded: only marginal incremental pain reduction versus placebo”.
